Assay results published in patent publication US20110009497A1, “DRUG-CONTAINING COMPOSITION” (FUJIFILM CORPORATION, priority 2008, published 2011).

Assays:
[1] = system: osteoporosis model rats (ovariectomized aged rats); experiment: Bone regeneration in osteoporosis model rats (ovariectomized aged rats); format: in vivo, rat; settings: calcitriol dissolved with vitamin D3 receptor carrier protein; i.v. 3 times per week, 0.3 μg/kg; four months later
Protocol: The resultant was allowed to stand still overnight at 22° C. and eluted with a solution A as in the case of Example 1. The eluate was introduced into a benzamidine column (GE Healthcare Bioscience; HiTrap Benzamidine FF (high sub) column) in a general purification step, during which a high-purity vitamin D3 receptor protein was purified. Accordingly, a drug carrier was obtained.
The obtained liquid was administered 3 times per week via intravenous injection to osteoporosis model rats (ovariectomized aged rats) such that the calcitriol concentration was maintained at 0.3 μg/kg.

[2] = biological target: T1, human vitamin D3 receptor (His-tag fusion protein) (Homo sapiens, UniProt P11473); experiment: Elution by human serum of vitamin D3 bound to His-tag fusion vitamin D3 receptor protein immobilised on Ni-column, HPLC quantification; format: binding; settings: carrier His-tag fusion vitamin D3 receptor protein on Ni-column; 20 ml human serum then 10 ml solution A at 0.1 ml/min
T1 construct: made in house; host or cells: Escherichia coli BL21 (DE3) Codon-plus, vector pQE30 Xa (QIAGEN)
T1 sequence (P11473 1-427): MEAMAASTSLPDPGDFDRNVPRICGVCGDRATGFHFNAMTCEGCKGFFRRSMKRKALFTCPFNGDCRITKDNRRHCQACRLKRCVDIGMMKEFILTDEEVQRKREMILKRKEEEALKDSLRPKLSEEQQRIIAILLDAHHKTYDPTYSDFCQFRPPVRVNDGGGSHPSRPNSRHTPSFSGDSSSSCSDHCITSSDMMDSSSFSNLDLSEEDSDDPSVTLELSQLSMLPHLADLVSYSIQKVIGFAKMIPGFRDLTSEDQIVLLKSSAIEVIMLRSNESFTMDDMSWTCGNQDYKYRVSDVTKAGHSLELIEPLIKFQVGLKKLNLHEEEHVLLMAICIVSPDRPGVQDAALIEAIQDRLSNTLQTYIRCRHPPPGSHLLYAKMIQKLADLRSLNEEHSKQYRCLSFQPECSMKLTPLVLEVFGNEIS
Protocol: (§1) For culture, an LB (Luria-Bertani) medium containing 100 μg/ml ampicillin was used. Preculture was carried out with the use of a 300-mL LB medium contained in a 500-mL Erlenmeyer flask at 37° C. Then, for main culture, 30 mL of the preculture solution was added to a 1.5-L LB medium (containing 100 μg/ml ampicillin) contained in a 3-L baffled Erlenmeyer flask and subjected to shake culture at 37° C. so as to result in 0.6 OD600. Thereafter, IPTG was added thereto to a final concentration of 0.5 mM for expression induction, followed by overnight shake culture at 30° C. Subsequently, cells were collected by centrifugation and washed. The obtained bacterial cells were suspended in 200 mM NaCl, 50 mM sodium phosphate buffer, and 10 mM imidazole (pH 8.0), followed by ultrasonic disintegration for 5 minutes and centrifugation at 44,200×g for 30 minutes. Thus, the supernatant was obtained. The obtained supernatant was introduced at a flow rate of 0.1 ml/min into an Ni-column (Ni-NTA His-Bind Resin: Novagen; column volume: 50 ml) that had been preliminarily equilibrated with a solution A (300 mM NaCl, 50 mM sodium phosphate buffer, 20 mM imidazole, pH 8.0) for immobilization. […]

[3] = biological target: T2, human albumin (His-tag fusion protein) (Homo sapiens, UniProt P02768); experiment: Elution by human serum of vitamin D3 bound to His-tag fusion albumin immobilised on Ni-column, HPLC quantification (Comparative Example 1); format: binding; settings: carrier His-tag fusion albumin on Ni-column; human serum 20 ml at 0.1 ml/min, then buffer
T2 construct: made in house; host or cells: Escherichia coli BL21 (DE3) Codon-plus, vector pQE30 Xa (QIAGEN)
Protocol: as §1, with “A human albumin sequence was expressed with the use of Escherichia coli BL21 (DE3) Codon-plus as a His-tag fusion protein (using a vector (pQE30 Xa; QIAGEN)). For” for “For”

T2 sequence (P02768 25-609): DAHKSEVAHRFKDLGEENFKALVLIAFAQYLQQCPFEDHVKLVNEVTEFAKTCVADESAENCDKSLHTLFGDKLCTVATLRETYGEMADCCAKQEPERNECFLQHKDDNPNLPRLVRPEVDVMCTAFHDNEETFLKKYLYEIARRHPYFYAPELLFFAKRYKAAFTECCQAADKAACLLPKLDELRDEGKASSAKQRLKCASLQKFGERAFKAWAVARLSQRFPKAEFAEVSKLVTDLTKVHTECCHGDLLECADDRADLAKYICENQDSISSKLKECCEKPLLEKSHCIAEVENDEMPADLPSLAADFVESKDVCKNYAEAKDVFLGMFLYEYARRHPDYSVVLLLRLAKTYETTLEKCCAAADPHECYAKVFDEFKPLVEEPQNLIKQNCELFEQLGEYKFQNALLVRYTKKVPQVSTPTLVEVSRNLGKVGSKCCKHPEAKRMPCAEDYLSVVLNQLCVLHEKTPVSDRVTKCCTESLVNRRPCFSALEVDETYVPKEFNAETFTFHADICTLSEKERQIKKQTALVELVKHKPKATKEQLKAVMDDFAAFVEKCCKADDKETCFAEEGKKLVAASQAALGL

Compound | induction of bone regeneration [1] | amount of vitamin D3 eluted from the column, of the total amount of bound vitamin [2] | amount of vitamin D3 eluted from the column, of the total amount of bound vitamin [3]
C=C1/C(=C\C=C2/CCC[C@]3(C)[C@@H]([C@H](C)CCCC(C)(C)O)CC[C@@H]23)C[C@@H](O)C[C@@H]1O [calcitriol, 1α,25-dihydroxyvitamin D3] | induction of bone regeneration in the rats was confirmed |  | 
C=C1CC[C@H](O)C/C1=C/C=C1\CCC[C@]2(C)[C@@H]([C@H](C)CCCC(C)C)CC[C@@H]12 [Vitamin D3, vitamin D3] |  | approximately 5% | approximately 70%
